Assays:
Type in all cases: in vivo, human
C-reactive protein (CRP) = test: Serum C-reactive protein ELISA; conditions: Mean ± SEM
Experimental: (§1) Prior to the study, participants were randomly assigned to receive either 3 g per day of HMB Free Acid (HMB) (combined with food-grade orange flavors and sweeteners), 400 mg per day of ATP (PEAK ATP®; TSI, Inc.), a combination of both 3 g of HMB and 400 mg per day of ATP, or a placebo (food-grade orange flavors and sweeteners) divided equally into three servings daily with the first serving given 30 minutes prior to exercise and the remaining two servings daily with the mid-day and evening meals. On the non-training days participants were instructed to consume one serving with each of three separate meals. The supplementation was continued daily throughout the training and testing protocols. Each serving was formulated with 1 gram of HMB free acid to account for fill and emptying variation and achieve a minimum effective dosage of 0.800 grams. This dosage would be equivalent to a 1 gram Ca-HMB dosage.
(§2) All blood draws throughout the study were obtained via venipuncture after a 12-hour fast by a trained phlebotomist. Whole blood was collected and transferred into appropriate tubes for obtaining serum and plasma and centrifuged at 1,500 g for 15 min at 4° C. Resulting serum and plasma were then aliquoted and stored at −80° C. until subsequent analyses.
(§3) Samples were thawed one time and analyzed in duplicate for each analyte. All blood draws were scheduled at the same time of day to negate confounding influences of diurnal hormonal variations. Serum total and free testosterone, cortisol, and C-reactive protein (CRP) were assayed via ELISA kits obtained from Diagnostic Systems Laboratories (Webster, Tex.). All hormones were measured in the same assay on the same day to avoid compounded interassay variance. […] Serum creatine kinase (CK) was measured using colorimetric procedures at 340 nm (Diagnostics Chemicals, Oxford, Conn.). Twenty-four hour urine collections were made and 3-methylhistine was determined by previously described methods (Rathmacher et al 1992 and Wilson et al, 2013).

resistance-trained males [1] = test: Wingate test peak power (maximal cycling); conditions: for Wingate PP gains in power from baseline: after the first week of the increased training (overreaching); for Wingate PP decrease: during the 2-week overreaching cycle
Experimental: Muscle power was assessed during maximal cycling (Wingate Test) and jumping movements. During the cycling test, volunteers were instructed to cycle against a predetermined resistance (7.5% of body weight) as fast as possible for 10 seconds (36). The saddle height was adjusted to the individual's height to produce a 5-10° knee flexion while the foot was in the low position of the central void. A standardized verbal stimulus was provided to each participant. Power output was recorded in real time during the 10-second sprint test, by a computer connected to the standard cycle ergometer (Monark model 894e, Vansbro, Sweden). Peak power (PP) was recorded using Monark Anaerobic Wingate Software, Version 1.0 (Monark, Vansbro, Sweden). The ICC of muscle peak power was 0.96. Prior to the study, participants were randomly assigned to receive either 3 g per day of HMB Free Acid (HMB) (combined with food-grade orange flavors and sweeteners), 400 mg per day of ATP (PEAK ATP®; TSI, Inc.), a combination of both 3 g of HMB and 400 mg per day of ATP, or a placebo (food-grade orange flavors and sweeteners) divided equally into three servings daily with the first serving given 30 minutes prior to exercise and the remaining two servings daily with the mid-day and evening meals. On the non-training days participants were instructed to consume one serving with each of three separate meals. The supplementation was continued daily throughout the training and testing protocols. […] This dosage would be equivalent to a 1 gram Ca-HMB dosage. All participants performed a high volume resistance training protocol during the 12-week study. The phases of the study and measurements taken are shown in FIG. 1, and the exercise protocols for each phase of the study are shown in Tables 1 to 3. The training was divided into 3 phases, with Phase 1 consisting of daily undulating periodization (weeks 1 to 8), Phase 2 consisting of the overreaching cycle (weeks 9 and 10), and Phase 3 consisting of the taper cycle (weeks 11 and 12).

urinary 3-MH:Cr ratio = test: 24 h urinary 3-methylhistidine:creatinine ratio (muscle protein degradation); conditions: Mean ± SEM
Experimental: as §1, §3
The rate of muscle protein degradation was evaluated by measuring urinary 3-MH:Cr ratio (Table 6).

resistance-trained males [2] = test: Skeletal muscle hypertrophy: ultrasonography muscle thickness of quadriceps (VL and VI); conditions: for 12-week increases in quadriceps thicknesses: 12 weeks
creatine kinase (CK) = test: Serum creatine kinase (muscle damage), colorimetric; conditions: for effect on training-induced increase in CK: compared with placebo, initiation of training and overreaching cycle; for CK: Mean ± SEM
Experimental: as §1, §2, §3

resistance-trained males [3] = test: Muscle strength: 1RM of back squat, bench press and deadlift (total strength); conditions: for change in total strength during the overreaching cycle: from week 8 to week 10; for total strength gains: over the 12-week study, 1-RM of squat, bench press, deadlift
Experimental: After familiarization with procedures, muscle strength was assessed via 1RM testing of the back squat, bench press, and […]. Each lift was performed as described by the International Powerlifting Federation rules (44). Body composition (lean body mass, fat mass, and total mass) was determined by dual x-ray absorptiometry (DXA; Lunar Prodigy enCORE 2008, Madison, Wis., U.S.A.). Skeletal muscle hypertrophy was determined via the combined changes in ultrasonography-determined muscle thickness of the vastus lateralis (VL) and vastus intermedius (VI) muscles. The intraclass correlation coefficient (ICC) for the test-retest of muscle thickness measurements was r=0.97. Prior to the study, participants were randomly assigned to receive either 3 g per day of HMB Free Acid (HMB) (combined with food-grade orange flavors and sweeteners), 400 mg per day of ATP (PEAK ATP®; TSI, Inc.), a combination of both 3 g of HMB and 400 mg per day of ATP, or a placebo (food-grade orange flavors and sweeteners) divided equally into three servings daily with the first serving given 30 minutes prior to exercise and the remaining two servings daily with the mid-day and evening meals. On the non-training days participants were instructed to consume one serving with each of three separate meals. The supplementation was continued daily throughout the training and testing protocols. […] This dosage would be equivalent to a 1 gram Ca-HMB dosage. All participants performed a high volume resistance training protocol during the 12-week study. The phases of the study and measurements taken are shown in FIG. 1, and the exercise protocols for each phase of the study are shown in Tables 1 to 3. The training was divided into 3 phases, with Phase 1 consisting of daily undulating periodization (weeks 1 to 8), Phase 2 consisting of the overreaching cycle (weeks 9 and 10), and Phase 3 consisting of the taper cycle (weeks 11 and 12).

Row | Structure (SMILES) | CRP (C-reactive protein (CRP); week 0 (baseline)) [mg/L] | CRP (C-reactive protein (CRP); week 1) [mg/L] | CRP (C-reactive protein (CRP); week 4) [mg/L] | CRP (C-reactive protein (CRP); week 8) [mg/L] | CRP (C-reactive protein (CRP); week 9 (overreaching)) [mg/L] | CRP (C-reactive protein (CRP); week 10 (overreaching)) [mg/L] | CRP (C-reactive protein (CRP); week 12) [mg/L] | Wingate PP gains in power from baseline (resistance-trained males [1]) [%] | Wingate PP decrease (resistance-trained males [1]) [%] | 24 h 3MH:Cr (urinary 3-MH:Cr ratio; week 0 (baseline)) | 24 h 3MH:Cr (urinary 3-MH:Cr ratio; week 1) | 24 h 3MH:Cr (urinary 3-MH:Cr ratio; week 8) | 24 h 3MH:Cr (urinary 3-MH:Cr ratio; week 9 (overreaching)) | 24 h 3MH:Cr (urinary 3-MH:Cr ratio; week 10 (overreaching)) | 12-week increases in quadriceps thicknesses (resistance-trained males [2]) [mm] | Quad (quadriceps muscle thickness) (resistance-trained males [2]; week 0 (baseline)) [mm] | Quad (quadriceps muscle thickness) (resistance-trained males [2]; week 4) [mm] | Quad (quadriceps muscle thickness) (resistance-trained males [2]; week 8) [mm] | Quad (quadriceps muscle thickness) (resistance-trained males [2]; week 12) [mm] | effect on training-induced increase in CK (creatine kinase (CK)) | also measured
1 | CC(C)(O)CC(=O)O [HMB-FA, β-hydroxy-β-methylbutyric acid] | 1.0 ± 0.1 | 1.3 ± 0.3 | 1.0 ± 0.1 | 0.9 ± 0.01 | 1.0 ± 0.1 | 1.8 ± 0.8 | 1.1 ± 0.1 | 10.2±1.6 | 0.3±0.9 | 0.127 ± 0.004 μmol:mg | 0.122 ± 0.002 μmol:mg | 0.124 ± 0.008 μmol:mg | 0.120 ± 0.003 μmol:mg | 0.141 ± 0.004 μmol:mg | 7.1±1.2 | 50.7 ± 1.5 | 53.6 ± 1.4 | 56.0 ± 1.4 | 57.8 ± 1.6 | significantly attenuated the increase in CK | CK (creatine kinase (CK); week 0 (baseline)): 158 ± 16 IU/L; CK (creatine kinase (CK); week 1): 322 ± 35 IU/L; CK (creatine kinase (CK); week 4): 280 ± 22 IU/L; CK (creatine kinase (CK); week 8): 255 ± 28 IU/L; CK (creatine kinase (CK); week 9 (overreaching)): 288 ± 18 IU/L; CK (creatine kinase (CK); week 10 (overreaching)): 250 ± 14 IU/L; CK (creatine kinase (CK); week 12): 147 ± 15 IU/L; change in total strength during the overreaching cycle (resistance-trained males [3]): −0.5±1.2%; total strength gains (resistance-trained males [3]): 77.1 ± 5.6 kg
2 | Nc1ncnc2c1ncn2[C@@H]1O[C@H](COP(=O)(O)OP(=O)(O)OP(=O)(O)O)[C@@H](O)[C@H]1O [ATP, Adenosine-5′-triphosphate] | 1.4 ± 0.4 | 1.1 ± 0.1 | 1.2 ± 0.2 | 1.9 ± 0.6 | 1.7 ± 0.6 | 1.1 ± 0.1 | 1.2 ± 0.2 | 9.0±1.6 | 2.9±0.7 | 0.136 ± 0.008 μmol:mg | 0.127 ± 0.007 μmol:mg | 0.143 ± 0.007 μmol:mg | 0.143 ± 0.008 μmol:mg | 0.131 ± 0.012 μmol:mg | 4.9±1.0 | 50.9 ± 0.9 | 53.4 ± 1.3 | 54.8 ± 1.7 | 55.8 ± 1.8 | did not attenuate the increases in CK | CK (creatine kinase (CK); week 0 (baseline)): 145 ± 8 IU/L; CK (creatine kinase (CK); week 1): 500 ± 71 IU/L; CK (creatine kinase (CK); week 4): 324 ± 14 IU/L; CK (creatine kinase (CK); week 8): 234 ± 32 IU/L; CK (creatine kinase (CK); week 9 (overreaching)): 426 ± 44 IU/L; CK (creatine kinase (CK); week 10 (overreaching)): 449 ± 62 IU/L; CK (creatine kinase (CK); week 12): 160 ± 20 IU/L; change in total strength during the overreaching cycle (resistance-trained males [3]): −2.±0.5%; total strength gains (resistance-trained males [3]): 55.3 ± 6.0 kg

From patent US10888576B2, “Composition of HMB and ATP and methods of use” (Metabolic Technologies, Inc., priority 2018, dated 2021)
